The source of these data is patent US20220349015A1, “DIAGNOSIS AND TREATMENT OF THYROID CANCER” (Beth Israel Deaconess Medical Center, Inc., priority 2019, published 2022).

Series [1] concerns TPO and TTF-1 mRNA in BRAF^V600E PTC-derived cells. As to the kind of experiment: qPCR of iodide metabolism genes (TPO, TTF-1 mRNA) in PTC-derived cells.
Series [2] concerns Xloc13 lincRNA expression in BRAF^V600E PTC-derived cells. As to the kind of experiment: qPCR of Xloc13 expression in BRAF^V600E PTC-derived cells. It is filed as cell-based, human. The following applies: metastatic or non-metastatic PTC-derived cells; vs. vehicle.
In series [3] the test system is human invasive heterozygous BRAF^WT/V600E PTC-derived cell line. The series is described as follows: Invasion of human invasive BRAF^WT/V600E PTC-derived cell line. Format: cell-based.
For series [4], the system named is BRAF^V600E PTC-derived cells. As to the kind of experiment: 123-Iodide uptake in vitro. The following applies: Xloc13 lincRNA; synergizes with vemurafenib.
Series [5] deals with BRAF^WT/V600E PTC-derived cell line xenograft tumors. The series is described as follows: Xenograft mouse model of human invasive heterozygous BRAF^WT/V600E PTC-derived cell line.
The mark [6] stands for this setting: Xloc13+ BRAF^WT/V600E PTC-derived cells.

Take `CCCS(=O)(=O)Nc1ccc(F)c(C(=O)c2c[nH]c3ncc(-c4ccc(Cl)cc4)cc23)c1F` [vemurafenib, reference compound]: the “TPO and TTF-1 mRNA levels rise” value in series [1] (cells engineered to over-express Xloc13 (Xloc13+) during treatment with vemurafenib) is roughly 3.5 fold-changes. Moreover, the “rescue of Xloc13 expression (qPCR)” value in series [2] is listed as 4-6 fold-changes.
For “Xloc13 lincRNA: thyroid-specific long intergenic non-coding RNA (2.257 kb, SEQ ID NO: 1), over-expressed from a vector in PTC-derived cells”, the “TPO mRNA expression levels” value in series [1] (Xloc13 lincRNA over-expression in PTC-derived cell lines) is reported as “up-regulates TPO mRNA expression levels”. For the same molecule, the invasion result in series [3] (Xloc13 lincRNA overexpression alone) was “inhibited invasion”. Further, the invasion entry in series [3] (Xloc13 lincRNA overexpression plus vemurafenib) is listed as “inhibits invasion”. Besides, the “123-iodide uptake/organification in vitro” value in series [4] was “crucial for the rescue”. Also, in series [5] (setting [6]), the EZH2 protein levels entry is recorded as “transcriptionally down-regulated EZH2 protein levels” and the “H3K27me3 (EZH2 effector)” value was “reducing its effector H3K27me3”. In series [5] (Xloc13+ cells under vemurafenib therapy vs. backbone vector control), this molecule registered a decrease in growth greater than 3 fold. Further, the “123-Iodide uptake in xenograft tumors (nano-SPECT imaging)” value in series [5] (Xloc13+ tumors of vemurafenib-treated mice vs. vehicle-treated backbone vector controls) is reported as “significantly crucial for the recovery”.
